Experimental data from patent US12227488B2, “Small molecule degraders of Helios and methods of use” (DANA-FARBER CANCER INSTITUTE, INC., priority 2018, dated 2025).

Experiments:
IKZF2 = test: Cellular degradation assay, eGFP-IKZF2Δ fusion with mCherry reporter in Flp-In 293 cells; assay type: cell-based; conditions: for IKZF2 GFP/RFP Relative Abundance: 5 h incubation, n=1
Experimental: (§1) IKZF1Δ, IKZF2Δ, GSPT1 and SALL4 ZnF1-2 were subcloned into mammalian pcDNA5/FRT Vector (Ampicillin and Hygromycin B resistant) modified to contain MCS-eGFP-P2A-mCherry. […] Following 2-3 passage cycle, FACS (FACSAria™ II, BD) was used to enrich for cells expressing eGFP and mCherry. Cells stably expressing the IKZF1Δ, IKZF2Δ, GSPT1 or SALL4 Znf1-2 GFP fusions with mCherry reporter were seeded at 30-50% confluency in 384-well plates with 50 μL FluoroBrite™ DMEM media (Thermo Fisher Scientific, A18967) containing 10% FBS per well a day before compound treatment. Compound titrations were dispensed using a D300e Digital Dispenser (HP), normalized to 0.5% DMSO, and incubated with cells for 5 hours.
(§2) The resulting images were analyzed using CellProfiler™. A series of image analysis steps (‘image analysis pipeline’) was constructed. First, the red and green channels were aligned and cropped to target the middle of each well (to avoid analysis of heavily clumped cells at the edges), and a background illumination function was calculated for both red and green channels of each well individually and subtracted to correct for illumination variations across the 384-well plate from various sources of error. An additional step was then applied to the green channel to suppress the analysis of large auto fluorescent artifacts and enhance the analysis of cell specific fluorescence by way of selecting for objects under a given size, 30 A.U., and with a given shape, speckles. mCherry-positive cells were then identified in the red channel filtering for objects between 8-60 pixels in diameter and using intensity to distinguish between clumped objects. The green channel was then segmented into GFP positive and negative areas and objects were labeled as GFP positive if at least 40% of it overlapped with a GFP positive area. The fraction of GFP-positive cells/mCherry-positive cells in each well was then calculated, and the green and red images were rescaled for visualization.
(§3) The degradation assay was performed as described above. […] Degradation was measured after 5 h of compound treatment and the concentrations that lead to half degradation at 5 h (DC50,5 h) were calculated using the nonlinear fit variable slope model (GraphPad Software).

IKZF1 = biological target: T1, IKZF1 (Homo sapiens, UniProt Q13422); test: Cellular degradation assay, eGFP-IKZF1Δ fusion with mCherry reporter in Flp-In 293 cells; assay type: cell-based; conditions: for IKZF1 GFP/RFP Relative Abundance: 5 h incubation, n=1
T1 construct: expressed in transfected cells; host or cells: Flp-In 293
T1 sequence (Q13422 83-213 isoform Q13422-7 limits assumed): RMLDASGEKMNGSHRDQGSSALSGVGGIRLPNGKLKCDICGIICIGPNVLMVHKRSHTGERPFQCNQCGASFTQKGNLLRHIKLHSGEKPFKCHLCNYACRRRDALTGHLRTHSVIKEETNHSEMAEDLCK
T1 sequence (Q96SW2 whole entry partner, the tested form may be a part): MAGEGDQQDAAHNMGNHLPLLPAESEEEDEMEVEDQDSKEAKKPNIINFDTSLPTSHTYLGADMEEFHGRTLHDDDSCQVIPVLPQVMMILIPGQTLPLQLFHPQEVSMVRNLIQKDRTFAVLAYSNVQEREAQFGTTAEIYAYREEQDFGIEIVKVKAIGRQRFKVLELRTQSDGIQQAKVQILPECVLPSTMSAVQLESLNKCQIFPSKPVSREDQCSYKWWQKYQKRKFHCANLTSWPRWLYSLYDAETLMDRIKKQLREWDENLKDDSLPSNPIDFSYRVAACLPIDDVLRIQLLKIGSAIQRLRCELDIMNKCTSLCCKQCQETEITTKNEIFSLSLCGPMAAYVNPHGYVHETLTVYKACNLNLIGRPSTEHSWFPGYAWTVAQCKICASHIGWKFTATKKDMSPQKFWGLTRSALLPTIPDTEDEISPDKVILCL
T1 sequence (Q16531 2-1140 partner limits assumed): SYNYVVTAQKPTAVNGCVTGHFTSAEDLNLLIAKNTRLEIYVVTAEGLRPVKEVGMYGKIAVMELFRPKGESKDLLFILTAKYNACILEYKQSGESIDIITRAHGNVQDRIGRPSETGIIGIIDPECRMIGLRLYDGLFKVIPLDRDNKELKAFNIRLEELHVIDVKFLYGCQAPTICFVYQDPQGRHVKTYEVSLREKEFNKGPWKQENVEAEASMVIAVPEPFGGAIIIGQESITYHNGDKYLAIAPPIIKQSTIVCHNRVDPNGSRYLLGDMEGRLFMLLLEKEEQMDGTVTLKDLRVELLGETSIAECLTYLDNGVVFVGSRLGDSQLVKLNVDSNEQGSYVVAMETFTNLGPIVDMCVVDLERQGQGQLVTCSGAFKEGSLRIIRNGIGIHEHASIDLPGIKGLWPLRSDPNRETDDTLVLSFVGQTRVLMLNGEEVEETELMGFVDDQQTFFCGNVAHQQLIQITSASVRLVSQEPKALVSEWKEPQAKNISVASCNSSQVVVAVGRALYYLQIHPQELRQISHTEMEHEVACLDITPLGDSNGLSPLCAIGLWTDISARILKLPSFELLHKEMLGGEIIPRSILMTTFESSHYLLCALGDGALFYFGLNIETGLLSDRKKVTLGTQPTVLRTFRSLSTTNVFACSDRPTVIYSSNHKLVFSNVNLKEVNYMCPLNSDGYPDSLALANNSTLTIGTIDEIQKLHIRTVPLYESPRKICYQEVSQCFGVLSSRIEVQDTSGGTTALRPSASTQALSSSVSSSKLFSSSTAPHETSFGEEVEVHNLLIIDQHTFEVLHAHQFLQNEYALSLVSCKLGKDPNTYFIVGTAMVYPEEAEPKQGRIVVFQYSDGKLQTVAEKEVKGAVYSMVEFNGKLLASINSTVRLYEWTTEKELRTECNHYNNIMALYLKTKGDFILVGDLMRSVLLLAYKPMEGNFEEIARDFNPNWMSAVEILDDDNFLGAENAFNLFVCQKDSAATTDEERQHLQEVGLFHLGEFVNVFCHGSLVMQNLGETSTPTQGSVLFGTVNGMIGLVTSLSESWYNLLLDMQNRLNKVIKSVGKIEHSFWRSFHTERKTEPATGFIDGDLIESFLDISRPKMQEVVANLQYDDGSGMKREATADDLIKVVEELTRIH
Experimental: as §1, §2, §3

CRBN and Helios (IKZF2) = biological target: T2, CRBN and Helios (IKZF2) (Homo sapiens, UniProt Q96SW2+Q9UKS7); test: TR-FRET dimerization assay (CRBN-IKZF2 ternary complex formation); assay type: binding; conditions: n=1
T2 construct: His (N); Strep (N)
T2 sequence (Q96SW2 whole entry): as the sequence (Q96SW2 whole entry partner, the tested form may be a part) above
T2 sequence (Q9UKS7 whole entry): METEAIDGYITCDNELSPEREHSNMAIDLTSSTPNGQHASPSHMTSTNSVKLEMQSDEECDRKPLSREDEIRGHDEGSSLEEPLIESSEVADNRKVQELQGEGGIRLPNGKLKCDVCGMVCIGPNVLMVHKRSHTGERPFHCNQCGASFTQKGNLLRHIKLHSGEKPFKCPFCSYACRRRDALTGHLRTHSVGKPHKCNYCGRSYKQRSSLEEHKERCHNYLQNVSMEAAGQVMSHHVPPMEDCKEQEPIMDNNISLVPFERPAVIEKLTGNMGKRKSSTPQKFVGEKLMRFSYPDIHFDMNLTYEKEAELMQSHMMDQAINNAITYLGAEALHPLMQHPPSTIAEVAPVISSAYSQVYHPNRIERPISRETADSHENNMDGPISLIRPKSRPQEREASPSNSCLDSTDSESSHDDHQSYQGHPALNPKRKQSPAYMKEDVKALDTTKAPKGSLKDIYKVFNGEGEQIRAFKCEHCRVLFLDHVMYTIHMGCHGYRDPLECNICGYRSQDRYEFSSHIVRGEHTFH
Experimental: A focused library of imide analogs was synthesized and assessed for their ability to induce dimerization between CRBN and Helios in a time-resolved fluorescence energy transfer (TR-FRET) assay (FIG. 1A).
Prior to TR-FRET measurements being conducted, the reactions were incubated for 15 min at rt. […] The TR-FRET signal of each data point was extracted by calculating the 520/490 nm ratios. Data from single measurements (n=1), each calculated as an average of at least three technical replicates per well per experiment are presented in Table 1.
BODIPY-labeled CRBN in complex with Damage Specific DNA Binding Protein 1 (DDB1) harboring an internal deletion of the flexible BPB propeller (DDB1AB-CRBN) and in vitro biotinylated IKZF2 were treated with increasing concentrations of the indicated compounds in the presence of tracer amounts of Terbium-Streptavidin (Tb-SA). Compound-induced recruitment of IKZF2 to CRBN was quantified following the 520/490 TR-FRET ratio using a PHERAstar® plate reader (BMG) utilizing two synchronized PMTs to reduce background.

[1] = compound concentration 2.00E−05
[2] = compound concentration 2.00E−06
[3] = compound concentration 2.00E−07
[4] = compound concentration 6.6667E−05
[5] = compound concentration 6.6667E−06
[6] = compound concentration 6.6667E−07 (667 nM)
[7] = half degradation at 5 h (DC50,5 h), triplicate, 11 point dose response

SMILES	IKZF2 GFP/RFP Relative Abundance (IKZF2; [1])	IKZF2 GFP/RFP Relative Abundance (IKZF2; [2])	IKZF2 GFP/RFP Relative Abundance (IKZF2; [3])	IKZF1 GFP/RFP Relative Abundance (IKZF1; [1])	IKZF1 GFP/RFP Relative Abundance (IKZF1; [2])	IKZF1 GFP/RFP Relative Abundance (IKZF1; [3])	TR-FRET-IKZF2 (Normalized to CC-885) (CRBN and Helios (IKZF2); [4])	TR-FRET-IKZF2 (Normalized to CC-885) (CRBN and Helios (IKZF2); [5])	TR-FRET-IKZF2 (Normalized to CC-885) (CRBN and Helios (IKZF2); [6])	DC50 (IKZF2; [7])	potency of IKZF1 degradation, in words (IKZF1; Table 3 summary)	DC50 (IKZF1; [7])
Cc1ccc(NC(=O)NCCc2cccc(NC3=CC(=O)N(C4CCC(=O)NC4=O)C3=O)c2)cc1C(F)(F)F (stereo not drawn) [Compound 126, 1-(3-((1-(2,6-dioxopiperidin-3-yl)-2,5-dioxo-2,5-dihydro-1H-pyrrol-3-yl)amino)phenethyl)-3-(4-methyl-3-(trifluoromethyl)phenyl)urea]	0.059	0.033	0.047	0.177	0.072	0.100	1.762	1.603	1.420	–	–	–
Cc1ccc(NC(=O)Nc2cccc3c(NC4=CC(=O)N(C5CCC(=O)NC5=O)C4=O)cccc23)cc1Cl (stereo not drawn) [Compound 124, 1-(3-chloro-4-methylphenyl)-3-(5-((1-(2,6-dioxopiperidin-3-yl)-2,5-dioxo-2,5-dihydro-1H-pyrrol-3-yl)amino)naphthalen-1-yl)urea]	0.829	1.015	0.985	0.689	0.978	1.005	0.159	0.130	0.077	–	–	–
O=C1CCC(N2C(=O)C=C(Nc3cccc(CCC(=O)Nc4ccc(C(F)(F)F)c(Cl)c4)c3)C2=O)C(=O)N1 (stereo not drawn) [Compound 129, N-(3-chloro-4-(trifluoromethyl)phenyl)-3-(3-((1-(2,6-dioxopiperidin-3-yl)-2,5-dioxo-2,5-dihydro-1H-pyrrol-3-yl)amino)phenyl)propanamide]	0.063	0.013	0.027	–	–	–	1.626	1.551	1.583	–	–	–
Cc1ccc(NC(=O)CNc2cccc(NC3=CC(=O)N(C4CCC(=O)NC4=O)C3=O)c2)cc1Cl (stereo not drawn) [Compound 78, N-(3-chloro-4-methylphenyl)-2-((3-((1-(2,6-dioxopiperidin-3-yl)-2,5-dioxo-2,5-dihydro-1H-pyrrol-3-yl)amino)phenyl)amino)acetamide]	–	–	–	–	–	–	–	–	–	2.2 nM	most potent against IKZF1	1.9 nM
Cc1ccc(NC(=O)CC(C)c2cccc(NC3=CC(=O)N(C4CCC(=O)NC4=O)C3=O)c2)cc1Cl (stereo not drawn) [Compound 137]	0.023	0.009	0.011	–	–	–	1.665	1.677	1.665	–	–	–
CC(CC(=O)Nc1cccc(C(F)(F)F)c1)c1cccc(NC2=CC(=O)N(C3CCC(=O)NC3=O)C2=O)c1 (stereo not drawn) [Compound 140, 3-(3-((1-(2,6-dioxopiperidin-3-yl)-2,5-dioxo-2,5-dihydro-1H-pyrrol-3-yl)amino)phenyl)-N-(3-(trifluoromethyl)phenyl)butanamide]	0.174	0.017	0.013	–	–	–	2.291	1.72	1.626	–	–	–
